Measured values reported in ChEMBL document CHEMBL1201862, “PubChem BioAssay data set” (2004).
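96-well plates; 48 h exposure; 5 concentrations. Endpoints by linear interpolation between flanking doses. Not reached: highest tested concentration assigned. GI50 marks 50% less growth.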 The source made the active and inactive calls. No stated cut-off is given here; in the data, active = GI50 up to about 1.1 µM and inactive = higher.

Key:
Experiment in all cases: NCI tumour cell line growth inhibition, 48 h
[1] = system: A498
[2] = system: K562
[3] = system: UO-31
[4] = system: SNB-19
[5] = system: MOLT-4
[6] = system: M14
[7] = system: Malme-3M
[8] = system: SK-MEL-28
[9] = system: RXF 393
[10] = system: NCI/ADR-RES
[11] = system: UACC-62
[12] = system: NCI-H23
[13] = system: UACC-257
[14] = system: MDA-MB-231
[15] = system: SNB-75
[16] = system: IGROV-1
[17] = system: NCI-H226
[18] = system: LOX IMVI
[19] = system: HL-60
[20] = system: SR

Row | Compound | GI50 [1] | GI50 [2] | GI50 [3] | GI50 [4] | GI50 [5] | GI50 [6] | GI50 [7] | GI50 [8] | GI50 [9] | GI50 [10] | GI50 [11] | GI50 [12] | GI50 [13] | GI50 [14] | GI50 [15] | GI50 [16] | GI50 [17] | GI50 [18] | GI50 [19] | GI50 [20]
1 | S=C(N1CCN(c2ccccc2)CC1)N1CCN(c2ccccc2)CC1 | > 100 µM (inactive) | > 100 µM (inactive) | > 100 µM (inactive) | > 100 µM (inactive) | 71.3 µM (inactive) | > 100 µM (inactive) | > 100 µM (inactive) | 86.9 µM (inactive) | > 100 µM (inactive) | > 100 µM (inactive) | > 100 µM (inactive) | > 100 µM (inactive) | > 100 µM (inactive) | > 100 µM (inactive) | 27.2 µM (inactive) | 90.8 µM (inactive) | 94.6 µM (inactive) |  |  | 
2 | CCOC(=O)/N=C(\N)SCc1ccccc1 | > 100 µM (inactive) | > 100 µM (inactive) | > 100 µM (inactive) | > 100 µM (inactive) | 26.5 µM (inactive) | > 100 µM (inactive) | > 100 µM (inactive) | > 100 µM (inactive) | > 100 µM (inactive) |  | > 100 µM (inactive) | > 100 µM (inactive) | > 100 µM (inactive) |  | > 100 µM (inactive) | > 100 µM (inactive) | 7.33 µM (inactive) | 43.9 µM (inactive) | 50.9 µM (inactive) | 31.6 µM (inactive)
3 | Cc1c2c(OCC(O)CN3CCN(c4ccccc4)CC3)nn(C)c(=O)c2c(C)n1-c1ccccc1 (stereo not drawn) | 20.3 µM (inactive) | 27 µM (inactive) | 18.9 µM (inactive) | 34.3 µM (inactive) | 30.4 µM (inactive) | 16.3 µM (inactive) | 21.8 µM (inactive) | 18.4 µM (inactive) | 26.9 µM (inactive) | 24.6 µM (inactive) | 17.1 µM (inactive) | 20.5 µM (inactive) | 28 µM (inactive) | 25.6 µM (inactive) | 19.8 µM (inactive) | 35.2 µM (inactive) | 23.2 µM (inactive) |  | 20.1 µM (inactive) | 
4 | OCC(O)C(O)C(C=NNc1ncnc2ccc(Br)cc12)=NNc1ncnc2ccc(Br)cc12 (stereo not drawn) | 4.23 µM (inactive) | 2.25 µM (inactive) | 2.78 µM (inactive) | 2.17 µM (inactive) | 0.258 µM (active) | 1.62 µM (inactive) | 0.378 µM (active) | 1.45 µM (inactive) | 2.14 µM (inactive) |  |  |  | 3.1 µM (inactive) | 1.88 µM (inactive) | 2.46 µM (inactive) | 0.726 µM (active) | 1.67 µM (inactive) | 0.745 µM (active) | 0.282 µM (active) | 0.492 µM (active)
5 | CC(C)/C=C1\CCC(CN2CCOCC2)C1=O (stereo not drawn) | > 35.9 µM (inactive) | 2.56 µM (inactive) | 20.7 µM (inactive) | > 100 µM (inactive) | 2.99 µM (inactive) | 11.9 µM (inactive) | 15.7 µM (inactive) | 17.7 µM (inactive) | 4.94 µM (inactive) |  | 18 µM (inactive) | 17.4 µM (inactive) | 7.78 µM (inactive) |  |  | 14.4 µM (inactive) | 30.5 µM (inactive) | 24.4 µM (inactive) | 2.13 µM (inactive) | 3.75 µM (inactive)
6 | COc1cccc(/C=C2/Sc3scc(-c4ccccc4)[n+]3C2=O)c1O |  |  | 13.3 µM (inactive) | 21.3 µM (inactive) | 16.1 µM (inactive) | 26 µM (inactive) |  | 17.3 µM (inactive) | 14.4 µM (inactive) | 17.7 µM (inactive) | 15.5 µM (inactive) | 17.3 µM (inactive) | 19.7 µM (inactive) | 23.5 µM (inactive) | 28.6 µM (inactive) | 15.2 µM (inactive) | 19.4 µM (inactive) | 16.2 µM (inactive) | 11.9 µM (inactive) | 
7 | O=S1(=O)OCCCOS(=O)(=O)C1Br |  |  | > 100 µM (inactive) | > 100 µM (inactive) | > 100 µM (inactive) | > 100 µM (inactive) | > 100 µM (inactive) | > 100 µM (inactive) | > 100 µM (inactive) | > 100 µM (inactive) | > 100 µM (inactive) | > 100 µM (inactive) | > 100 µM (inactive) |  | > 100 µM (inactive) |  | > 100 µM (inactive) | > 100 µM (inactive) |  | > 100 µM (inactive)
8 | O=C1C(Cl)C(c2ccc(O)cc2)N1n1cnc2ccccc2c1=O (stereo not drawn) | > 100 µM (inactive) | 31.3 µM (inactive) | 55.1 µM (inactive) | > 100 µM (inactive) | 25.6 µM (inactive) | 30.5 µM (inactive) | 37.2 µM (inactive) | 26.7 µM (inactive) | 19 µM (inactive) |  | 18.7 µM (inactive) | 31 µM (inactive) | 43.6 µM (inactive) |  | 49 µM (inactive) | > 57.5 µM (inactive) | > 100 µM (inactive) | 21 µM (inactive) | 24.5 µM (inactive) | 18.8 µM (inactive)
9 | O=C1c2ccccc2-c2nc3ccc(O)cc3n21 |  | > 100 µM (inactive) | > 100 µM (inactive) | > 100 µM (inactive) | > 100 µM (inactive) | > 100 µM (inactive) | > 100 µM (inactive) | > 100 µM (inactive) | > 100 µM (inactive) | > 100 µM (inactive) | > 100 µM (inactive) | > 100 µM (inactive) | > 100 µM (inactive) |  | 34.1 µM (inactive) | > 100 µM (inactive) | > 100 µM (inactive) |  | > 100 µM (inactive) | > 100 µM (inactive)
10 | O=C1/C(=C/c2ccccc2)CN(C(=O)OCc2ccccc2)C/C1=C\c1ccccc1 | 27.4 µM (inactive) | 1.88 µM (inactive) | 14.6 µM (inactive) | 26.6 µM (inactive) | 2.76 µM (inactive) | 8.07 µM (inactive) | 30.4 µM (inactive) | 11.5 µM (inactive) | 13.4 µM (inactive) |  | 12.2 µM (inactive) | 15.6 µM (inactive) | 16 µM (inactive) | 17.8 µM (inactive) | > 31.6 µM (inactive) | 14.1 µM (inactive) | 26.2 µM (inactive) | 4.76 µM (inactive) | 1.79 µM (inactive) | 1.53 µM (inactive)
11 | CC1(C)CC(=O)C(=CNC(=O)c2ccncc2)C(=O)C1 |  |  | > 100 µM (inactive) | > 100 µM (inactive) | > 100 µM (inactive) | > 100 µM (inactive) |  | > 100 µM (inactive) | > 100 µM (inactive) | > 100 µM (inactive) | > 100 µM (inactive) | > 100 µM (inactive) | > 100 µM (inactive) | > 100 µM (inactive) | > 100 µM (inactive) | > 100 µM (inactive) | > 100 µM (inactive) | > 100 µM (inactive) | 71.3 µM (inactive) | 
12 | CC(=O)OC1COC(N2C(=O)C(=O)c3c(C)cc(Cl)nc32)C(OC(C)=O)C1OC(C)=O (stereo not drawn) | > 100 µM (inactive) | > 100 µM (inactive) | > 100 µM (inactive) | > 100 µM (inactive) | > 100 µM (inactive) | > 100 µM (inactive) | > 100 µM (inactive) | > 100 µM (inactive) | > 100 µM (inactive) |  | > 100 µM (inactive) | > 100 µM (inactive) | > 100 µM (inactive) |  | > 100 µM (inactive) | > 100 µM (inactive) | > 100 µM (inactive) | > 100 µM (inactive) | > 100 µM (inactive) | 83.6 µM (inactive)
13 | CC(C)C1OC(=O)C=C1Sc1ccccc1 (stereo not drawn) | > 100 µM (inactive) | > 100 µM (inactive) |  | > 100 µM (inactive) | > 100 µM (inactive) | > 100 µM (inactive) | 80.7 µM (inactive) | > 100 µM (inactive) | > 100 µM (inactive) |  | > 100 µM (inactive) |  | > 100 µM (inactive) | > 100 µM (inactive) | > 100 µM (inactive) | > 100 µM (inactive) | > 100 µM (inactive) | > 100 µM (inactive) | > 100 µM (inactive) | > 100 µM (inactive)
14 | COC(=O)C1=C(CCC[C@H](C)O[Si](C)(C)C(C)(C)C)NC(=O)N2[C@@H](CCO)CC[C@H]12 | 16.6 µM (inactive) | 6.92 µM (inactive) | 15.6 µM (inactive) | 15.2 µM (inactive) | 18.6 µM (inactive) | 16.3 µM (inactive) | 12.5 µM (inactive) | 18.5 µM (inactive) | 12.4 µM (inactive) | 13.9 µM (inactive) |  | 13.2 µM (inactive) | 11.8 µM (inactive) | 16.2 µM (inactive) | 15.7 µM (inactive) | 15.8 µM (inactive) | 14.6 µM (inactive) | 16.9 µM (inactive) |  | 
15 | Cc1n[nH]c(=O)n1/N=C/c1cccc(Cl)c1 | 40.8 µM (inactive) | > 100 µM (inactive) | > 100 µM (inactive) | > 100 µM (inactive) | 49.3 µM (inactive) | > 100 µM (inactive) | > 100 µM (inactive) | > 100 µM (inactive) | 20.2 µM (inactive) | > 100 µM (inactive) | > 100 µM (inactive) | > 100 µM (inactive) | > 100 µM (inactive) | > 100 µM (inactive) | 61.5 µM (inactive) |  | > 100 µM (inactive) |  |  | 
16 | CC(=O)OCc1nc(C#N)c(N)o1 | > 100 µM (inactive) | > 100 µM (inactive) | > 100 µM (inactive) | > 100 µM (inactive) | > 100 µM (inactive) |  | > 100 µM (inactive) | > 100 µM (inactive) | > 100 µM (inactive) |  | > 100 µM (inactive) | > 100 µM (inactive) | > 100 µM (inactive) | > 100 µM (inactive) |  | > 100 µM (inactive) | > 100 µM (inactive) | > 100 µM (inactive) | > 100 µM (inactive) | > 100 µM (inactive)
